Experiments:
[1] = Stability of deprenyl as a function of the pH of the medium; type: physicochemical; conditions: pH about 3-5 versus pH about 7
Source text: The stability of deprenyl can be affected by the pH of the medium in which the deprenyl is formulated. […] Therefore, when formulating a deprenyl compound in a pharmaceutical composition, it is preferred that the deprenyl compound be maintained at a suitable pH. In preferred embodiments, a pharmaceutical composition of the invention has a pH in the range of about 3 to about 5, more preferably about 3 to about 4. Furthermore, ethyl alcohol is a preferred solvent for improving stability of deprenyl. Thus, in certain embodiments, alcoholic or aqueous alcoholic media are preferred for the pharmaceutical compositions of the invention.

[2] = tested on: retinal ganglion cells projecting to the superior colliculus (RGC^SCs) / RGCL neuronal cell bodies; assay: Optic nerve crush in rats: counts of Nissl-stained and Fluoro-Gold-labelled cell bodies in the retinal ganglion cell layer; type: in vivo; conditions: for counts of RGCL neuronal cell bodies (RGCLncbs) per mm length of retinal cross-section: Nissl stain, FIG. 1
Source text: All animals were handled according to the Declaration of Helsinki and The Guiding Principles in the Care and Use of Animals. […] The injections were delivered from a 10 microliter Hamilton syringe over a period of fifteen minutes.
It has been reported that 40-50% of the neurons whose cell bodies are located in the retinal ganglion cell layer (RGCL) of the rat send an axon to the optic nerve and are RGCs (Cowey et al. (1979) Exp. Brain Res. 35, 457-64; Perry V. H. (1981) Neuroscience 6, 931-44: and Linden et al. (1989) Brain Res. 272, 145-149). […] Most RGCs (>95%) in rats send their axons to the SC with as many as 10% also sending branches to the lateral geniculate body (Cowey et al. (1979) Exp. Brain Res. 35, 457-64).
Four days were allowed for the retrograde transport of the FG to the RGC^SCs cell bodies and then the left optic nerve of the rats was exposed and crushed by applying the tips of Dumont number 5 forceps to the nerve immediately behind the globe for ten seconds. Careful attention was used to avoid the central retinal artery. Each nerve was crushed three times at the same site. Following the crushes, the nerve was examined with the aid of an operating microscope to ensure that the axonal component of the nerve was divided into two clearly separated stumps surrounded by an unbroken dural sheath. Retinal artery patency was confirmed by direct ophthalmoscopy.
One group of eight rats received (−)-deprenyl (1 mg/kg) by intraperitoneal (IP) injection every two days for a fourteen day period beginning at the time of optic nerve crush. The remaining group of eight rats received IP injections of saline on the same schedule. Fourteen days after the optic nerve crush all sixteen rats were euthanized with an overdose of somnotol and perfused transcardially with 4% paraformaldehyde in phosphate buffer. The brains and retinas were immersed in 20% sucrose for twenty four hours and then frozen in −70 degrees C methylbutane. Serial […] sections were cut through the upper brain stem and diencephalon of the animals and viewed under fluorescence microscopy to determine the location and extent of the stereotactic injections of FG. Serial […] sections of the retinas were cut and every third section was Nissl stained. In order to detect even low level FG fluorescence in neuronal cell bodies or processes, the FG labelled brain sections and the retinal sections were examined with the aid of a Hamarmatsu intensification camera that allowed the fluorescent images to be digitized using a Matrox frame grabber controlled by image analysis software (Universal Metamorph). This allowed for the creation of computer images of neuronal cell bodies containing FG in the sections taken from areas of the stereotactic injections and sections taken through each of the retinas.
About 25 sections were chosen randomly from the serial sections taken from each retina. Sections were only chosen from the middle 70% of the serial sections where section length exceeded 6 mm. Nissl stained cell bodies in the RGCL were counted at 1000× magnification under oil immersion on a Leitz Orthoplan microscope. RGCL somata were only counted if they contained a well defined nucleus. The cross sectional length of the ganglion cell layer for each section was measured by transferring the retinal section image into a computer using a CCD camera (Dage Ltd.) and IPPLUS 2.1 software (Media Cybernetics). The number of RGCL neuronal cell bodies (RGCLncbs) per mm length of retinal crossection was calculated and were pooled for each of the four lesion/treatment groups (uncrushed-saline, uncrushed-deprenyl, crushed-saline and crushed-deprenyl).
A similar group of sections were randomly chosen from one of the two remaining series of retinal sections. […]

cell death = assay: Animal and cell-culture studies of prevention of cell death with the P450 inhibitor Proadifen; conditions: co-administration of the P450 inhibitor Proadifen
Source text: It is believed that certain deprenyl compounds can be at least partially metabolized in vivo after administration to a subject. For example, (−)-deprenyl can be metabolized by the liver to (−)-desmethyldeprenyl, as well as (−)-methamphetamine and (−)-amphetamine, after oral administration. The hepatic metabolism of (−)-deprenyl can be inhibited by administration of a P450 inhibitor such as Proadifen. […] It is presently believed that (−)-methamphetamine and (−)-amphetamine are inhibitors of the cell-rescuing activity of deprenyl compounds. […] Absence of MAO inhibitor activity may in fact provide a drug with fewer side effects.

Structure (SMILES)	stability depending on pH of the medium [1]	counts of RGCL neuronal cell bodies (RGCLncbs) per mm length of retinal cross-section ([2]; crushed optic nerve, 14 days after crush, (−)-deprenyl 1 mg/kg IP every two days)	RGC^SCs as percentage of the mean value of the distribution for the uncrushed saline retinas ([2]; crushed optic nerve, 14 days, crushed saline 3.0%, FIG. 3)	numbers of neuronal cell bodies/mm in the RGCL as average percent of those in uncrushed saline retinae ([2]; crushed optic nerve, 14 days, crushed saline 46%) [%]	slope of FG labelled versus Nissl stained cell body counts ([2]; crushed retinas, FIG. 2)	mean ratio of FG labelled to Nissl stained somata ([2]; crushed retinas, crushed saline 0.003)	survival of RGCs at fourteen days ([2]; crushed retinas, estimated assuming 40-50% of RGCL neurons do not send axons to the optic nerve, crushed saline less than 10%)	counts of RGCL neuronal cell bodies (RGCLncbs) per mm length of retinal cross-section ([2]; uncrushed optic nerve, (−)-deprenyl 1 mg/kg IP every two days for 14 days)	effect of Proadifen on cell-rescuing activity (prevention of cell death) (cell death)
C#CCN(C)C(C)Cc1ccccc1 (single isomer, unassigned; (-)) [(−)-deprenyl, N,α-dimethyl-N-2-propynylphenethylamine]	more stable at a pH in the range of about 3-5 than at a pH of about 7	32.60+/−9.94	36.9+/−11.2%	65	0.219+/−0.019	0.245+/−0.055	30-40%	48.39+/−8.48 /mm	Proadifen reduces the ability of (−)-deprenyl to prevent cell death
C#CCN[C@H](C)Cc1ccccc1 [(−)-desmethyldeprenyl]	–	–	–	–	–	–	–	–	does not block the cell-rescuing activity
